Assay results from patent publication US20210162078A1, “METHOD FOR DIAGNOSIS OF DO[…] MOVEMENT DISORDERS” (LikeMinds, Inc., priority 2018, published 2021).
Like-named read-outs stand apart in the source and are kept apart here.

Key:
DAT in the striatum [1] = target: T1, DAT in the striatum (Homo sapiens, UniProt Q01959); assay: DaT2020 SPECT study: striatal binding ratio over time after IV injection; assay type: in vivo; conditions: for specific binding ratio reached, as % of average stable binding ratio: within six min after injection
T1 construct: from tissue; host or cells: striatum of living subjects (in vivo SPECT)
T1 sequence (Q01959 whole entry): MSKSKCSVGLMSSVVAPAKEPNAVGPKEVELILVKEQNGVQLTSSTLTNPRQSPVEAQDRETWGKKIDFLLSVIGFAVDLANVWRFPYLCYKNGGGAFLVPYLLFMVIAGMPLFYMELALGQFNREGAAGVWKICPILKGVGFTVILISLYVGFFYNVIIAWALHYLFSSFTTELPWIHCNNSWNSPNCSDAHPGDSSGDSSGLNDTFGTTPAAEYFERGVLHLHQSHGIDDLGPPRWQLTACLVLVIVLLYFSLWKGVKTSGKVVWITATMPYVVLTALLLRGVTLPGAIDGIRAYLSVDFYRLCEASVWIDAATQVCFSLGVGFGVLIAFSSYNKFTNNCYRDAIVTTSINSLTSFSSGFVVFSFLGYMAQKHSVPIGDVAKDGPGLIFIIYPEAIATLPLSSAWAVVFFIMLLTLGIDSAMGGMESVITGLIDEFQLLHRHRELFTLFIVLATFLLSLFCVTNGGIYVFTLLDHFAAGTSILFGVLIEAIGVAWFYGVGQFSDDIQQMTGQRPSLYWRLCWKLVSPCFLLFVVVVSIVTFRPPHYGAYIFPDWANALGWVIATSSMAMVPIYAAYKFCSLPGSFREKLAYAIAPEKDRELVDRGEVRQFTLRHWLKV
Procedure: The results obtained from administering lower doses of radiolabeled_DaT2020 (5.3 mCi) were modeled from the data obtained using the 8 mCi dose and a 3-headed camera. Within six min after injection of radiolabeled DaT2020, the specific binding ratios of Parkinson's patients and the healthy volunteer group had reached 90% and 74% of the average stable binding ratio of 1.32 and 1.64, respectively, during the previously determined imaging time of 15 min to 45 min post-administration. In contrast, DaTscan takes least 180 min to reach a stable binding ratio.
The subjects used in the study were healthy volunteers (HV) and those with at least mild Parkinson's disease (PD) (Seibyl at al. (2008) “ALTROPANE SPECT in Parkinson's disease patients and healthy controls” (poster). Abs. Movement Dis. Soc. 12th Internat. Con. Parkinson's Disease and Movement Disorders). All subjects were evaluated by a clinician using validated measures to determine if there is evidence of a movement disorder. Any subject using an anti-parkinsonian medication abstained from its use for at least 12 hr prior to the movement disorder evaluation. […]
ROIs were determined using data obtained from about 24 min to 30 min after dose administration, with individual subject ROI sampling of the left and right caudate and putamen and an occipital background region. […]
To determine the striatal binding ratios (SBR) extract total counts within the ROI, total volume, and count density (counts/voxel) from each scan. SBR is calculated as the density of counts (counts per voxel per min) in the striatal region minus the counts in the occipital cortex (background) divided by the density of counts in the occipital background region. The mean striatal SBR scores are calculated as the mean of the left and right caudate and putamen SBR scores.
DaT2020 SBR data over time were abstracted by reading the graphics showing SBR over time for PD patients (Seibyl and Merck, ibid., Appendix 1) (the first scan of two was read), and in Appendix 2 for healthy volunteers (Seibyl and Merck, ibid., Appendix 2).

DAT [2] = target: T2, DAT (Homo sapiens, UniProt Q01959); assay: Binding selectivity of DaT2020 for DAT over SERT
Target sequence in this assay (Q01959 whole entry, species assumed): as the sequence (Q01959 whole entry) above

DAT in the striatum [3] = target: T1, DAT in the striatum; conditions: imaging time 15 min to 45 min post-administration, cited from earlier work
[4] = Clinical safety and radiation dose of radiolabeled DaT2020 bolus injection; assay type: in vivo, human
Procedure: Such buffers include, but are not limited to, ethanol (solvent), sodium hydroxide and acetic acid (pH adjustment), sodium chloride injection (isotonic vehicle). The formulation to be administered as a bolus injection has been shown in sponsored clinical trials to be safe containing a dose of up to about 8 mCi to 10 mCi of radiolabeled DaT2020 and delivered in a total volume of about 2.5 mL to about 5 mL.
The radioactivity of the dose of radiolabeled DaT2020 or of its radiolabeled derivatives, can be determined one with skill in the art, e.g. by a nuclear medicine imaging technician. In addition, the total radioactivity of the actual administered dose is of relevance and not the volume administered to achieve this dose. The exact radioactive dose of the tracer administered is determined by calculating the difference between the radioactivity in the syringe and delivery system before and after injection. After the dose is delivered, the syringe is filled with a volume of saline equal to the administered dose volume. The syringe content is recounted under the same conditions as used to determine the dose; separately. […]

DAT in the striatum [5] = target: T1, DAT in the striatum; conditions: cited from earlier work; for time after injection to stable binding to striatal DAT: DaTscan, IV injection, SPECT
DAT [6] = target: T2, DAT; set-up: host or cells: brain tissue in vivo; conditions: after binding to transporters other than DAT; package insert; cited from earlier work
Target sequence in this assay (Q01959 whole entry): as above

DAT [7] = target: T2, DAT; conditions: DAT sites per one SERT site; package insert; cited from earlier work
Target sequence in this assay (Q01959 whole entry, species assumed): as the sequence (Q01959 whole entry) above

With `COC(=O)[C@H]1[C@@H](c2ccc(F)cc2)C[C@@H]2CC[C@H]1N2C/C=C/I` [DaT2020, E-2β-carbomethoxy-3β-(4-fluorophenyl)-N-(3-iodo-E-allyl) nortropane] the “specific binding ratio reached, as % of average stable binding ratio” value (DAT in the striatum [1]; Parkinson's patients) was 90%, the “specific binding ratio reached, as % of average stable binding ratio” value (DAT in the striatum [1]; healthy volunteer group) was 74% and the “time after administration at which stable binding to DAT occurs” value (DAT in the striatum [1]; radiolabeled DaT2020, IV injection, SPECT) was 15 min. For the same compound, the “binding selectivity for DAT over SERT” value (DAT [2]) was 28 fold, the “average stable binding ratio (SBR)” value (DAT in the striatum [3]; Parkinson's patients) was 1.32 and the “average stable binding ratio (SBR)” value (DAT in the striatum [3]; healthy volunteer group) was 1.64. The “safety of bolus injection in sponsored clinical trials” value ([4]; dose of up to about 8 mCi to 10 mCi, total volume about 2.5 mL to about 5 mL) was “safe” and the effective dose ([4]; for 5 mCi of radiolabeled DaT2020) was “approximately 4.3 mSv”.
In the case of `COC(=O)[C@H]1[C@@H](c2ccc(I)cc2)C[C@@H]2CC[C@H]1N2CCCF` [DaTscan, N-ω-fluoropropyl-2β-carbomethoxy-3β-(4-iodophenyl) nortropane], the “time after injection to stable binding to striatal DAT” value (DAT in the striatum [5]) is given as 3 h, the “time after injection to stable binding to striatal DAT” value (DAT in the striatum [5]; listed as [^123I]-FP-CIT) is given as 3 h and the “time for which binding remains stable” value (DAT in the striatum [5]; after reaching stable binding 3 hr post-injection) is given as 3 h. For the same compound, the “DaTscan available for DAT transporter binding in the brain tissue” value (DAT [6]) was “about 7%” and the “DAT sites bound for every one SERT site” value (DAT [7]) was “two to three”.
